Common to all, as to format: physicochemical
Data set [1] is described as follows: Heat treatment, loss of coating (Example 17). The following applies: for Loss of coating: coated nanostructures, 80° C. for 30 minutes, washed on 10 kDa filter, Si/P ratio by ICP-OES. The protocol: The sample was moved to a 20 mL flask and degassed by three N2-vacuum cycles and was then kept under N2. The sample was heated in a silicon oil bath at 80° C. for 30 minutes and was then cooled to ambient room temperature. A reference aliquot was withdrawn (A). The remaining sample was washed with four times with milliQ water on a 10 kDa Vivaspin 6 centrifugation filter (Sartorious). A reference aliquot (B) was withdrawn from the retentate. Reference aliquots A, and B were analyzed with ICP-OES.

The nature of data set [2]: Calcium induced aggregation of the coated nanostructures (Example 15). The following applies: 0-8 mM CaCl2, 10 mM Tris-HCl 150 mM NaCl pH 7.4, 1 h room temperature. On the procedure: Volumes of nanostructure were added to 1 ml aliquots of 10 mM Tris-HCl 150 mM NaCl pH 7.4 containing 0, 0.5, 1, 2, 4 and 8 mM CaCl2) in microcentrifuge tubes so that the final concentration of phosphorus was 0.5 mM. The samples were vortexed, incubated at room temperature for 1 h and centrifuged for 10 min at 12000×g. The supernatants (700 μl) were removed and analyzed by ICP for phosphorus concentrations. The phosphorus concentrations were normalized to the concentration in corresponding samples without CaCl2) and plotted as ‘% remaining in solution’ against the concentration of CaCl2) in the reaction mixture. When 90% or more remains in solution the material is considered robust against calcium induced aggregation.

Data set [3] is described as follows: Stability of coated nanostructures on manganese loading / process conditions (GFC, Example 18). The protocol: 200 ml of the crude solution of coated nanostructures of Example 13b was added a solution of 0.256 g MnCl2.4H2O dissolved in 2.56 ml ethylene glycol. The pH was adjusted to 4.07 with 1 M NaOH. The manganese solution was added to the reaction. An aliquot A was taken out. The reaction was heated at 100° C. for 25 h 30 min after which the temperature descended to ambient room temperature. An aliquot B was withdrawn.

With “1-[ω-methyl-(ethyleneoxy)12-20]-3-(prop-3-triethoxysilyl-1-yl- [A]”, the Loss of coating in data set [1] was determined as 5%. For the same substance, the “hydrolysis of the coating bound to polymeric nanostructures” value in data set [1] (neutral to basic conditions) is on record as “prone to slow hydrolysis”. Further, the Ca resistance result in data set [2] is recorded as “Y (When 90% or more remains in solution the material is considered robust against calcium induced aggregation)”.

Turning to “4-[ω-methyl-(ethyleneoxy)12-20]hepta-1,6-diene [Compound 43]”, the Loss of coating in data set [1] came to 0%.

Turning to “N,N-bis(prop-3-trimethoxysilyl-1-yl)-2-[ω-methyl-(ethyleneoxy)8-11]acetamide [Compound 54]”, in data set [3], the “stability of coated nanostructures under the coating / process conditions” value is on record as “degraded substantially”.

Source of the values: patent US11401376B2, “Chemical compounds for coating of nanostructures” (Spago Nanomedical AB, priority 2017, dated 2022).
